Experimental data reported in patent publication US20090093424A1, “Markers for melanoma” (University College Dublin, priority 2006, published 2009).

Tested on: FABP5 gene expression in melanoma cell lines (WM793 and derivatives)
Experiment: RT-PCR analysis via cycle limitation to assess effect of DAC treatment on FABP5 expression in melanoma cell lines
Type: cell-based, human
Procedure: Total RNA was extracted from untreated (−DAC) and treated (+DAC) cells and subjected to RT-PCR analysis via a cycle limitation method.
RNA extracts were pre-digested with DNase I prior to cDNA synthesis using the DNA-Free kit (Ambion). Single-stranded cDNA was synthesized from 1 μg total RNA using the ImProm-II Reverse Transcription kit (Promega). Recombinant RNasin Ribonuclease Inhibitor (20 U/20 μL reaction; Promega) was added to prevent RNase-mediated degradation. Two negative controls were also utilised, namely minus reverse transcriptase enzyme control and minus template control. Following inactivation of reverse transcriptase (RT) at 70° C. for 15 minutes, aliquots of generated single-stranded cDNA were subjected to polymerase chain reaction (PCR) amplification via a cycle limitation approach.
18 s was used as a control gene whose expression is unaffected by DAC treatment.
Primers used were as follows: […]

Nc1ncn([C@H]2C[C@H](O)[C@@H](CO)O2)c(=O)n1 [DAC, 5-aza-2′-deoxycytidine]
expression of the FABP5 gene after DAC treatment (derivative melanoma cell lines of WM793, treated (+DAC) vs untreated (-DAC), 18s control gene, FIG. 6): increased expression of the FABP5 gene
recovery of FABP5 expression by DAC treatment, aggressive derivative lines compared with parental line (more aggressive melanoma cell lines vs parental WM793, FIG. 6): recovered greater expression in these cells than in the parental melanoma cell line
